Laboratory results as given in PubChem BioAssay (NCI).
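Briefly, cells in 96-well plates were exposed to five compound concentrations for 48 h, and endpoints were estimated by linear interpolation. GI50 marks 50% less growth. At the TGI there is no net growth.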

Key:
Test in all cases: DTP human tumour cell line panel, 48 h
[1] = test system: SK-OV-3 ovarian
[2] = test system: CCRF-CEM leukemia
[3] = test system: UACC-62 melanoma
[4] = test system: U251 CNS
[5] = test system: K-562 leukemia
[6] = test system: MOLT-4 leukemia
[7] = test system: OVCAR-8 ovarian
[8] = test system: SNB-19 CNS
[9] = test system: OVCAR-4 ovarian
[10] = test system: SF-539 CNS
[11] = test system: SF-268 CNS
[12] = test system: LOX IMVI melanoma
[13] = test system: MDA-MB-435
[14] = test system: NCI-H460 lung
[15] = test system: MDA-MB-468 breast
[16] = test system: T-47D breast
[17] = test system: CAKI-1 renal
[18] = test system: A498 renal
[19] = test system: SN12C renal
[20] = test system: MALME-3M melanoma
[21] = test system: SK-MEL-5 melanoma
[22] = test system: COLO 205 colon
[23] = test system: BT-549 breast
[24] = test system: NCI-H226 lung
[25] = test system: RXF 393 renal
[26] = test system: KM12 colon
[27] = test system: DU-145 prostate
[28] = test system: PC-3 prostate
[29] = test system: MCF7 breast
[30] = test system: 786-0 renal
[31] = test system: EKVX NSCLC
[32] = test system: SF-295 CNS
[33] = test system: OVCAR-3 ovarian
[34] = test system: MDA-MB-231 breast
[35] = test system: HCT-15 colon
[36] = test system: M14 melanoma
[37] = test system: HCC-2998 colon
[38] = test system: HOP-92 NSCLC
[39] = test system: UACC-257 melanoma
[40] = test system: NCI-H23 lung
[41] = test system: HS 578T breast
[42] = test system: SK-MEL-28 melanoma
[43] = test system: OVCAR-5 ovarian
[44] = test system: HT29 colon
[45] = test system: TK-10 renal
[46] = test system: SW-620 colon
[47] = test system: ACHN renal
[48] = test system: IGROV1 ovarian
[49] = test system: A549 NSCLC
[50] = test system: HL-60(TB) leukemia
[51] = test system: SK-MEL-2 melanoma
[52] = test system: NCI-H522 lung
[53] = test system: RPMI-8226 leukemia
[54] = test system: UO-31 renal
[55] = test system: HOP-62 NSCLC
[56] = test system: SNB-75 CNS
[57] = test system: HCT-116 colon
[58] = test system: SR leukemia

`N#Cc1c(-c2ccccc2Cl)cc(-c2ccc3ccccc3c2)[nH]c1=O` was tested, and the GI50 [1] was 15.9 µM, the TGI [1] was 32.4 µM and the GI50 [2] was over 100 µM. For the same molecule, the TGI [2] was over 100 µM, the GI50 [3] was 27.9 µM and the TGI [3] was over 100 µM. For the same molecule, the GI50 [4] was 17.6 µM, the TGI [4] was 38.5 µM and the GI50 [5] was over 100 µM. It also gave a TGI [5] of over 100 µM, a GI50 [6] of over 100 µM and a TGI [6] of over 100 µM. The GI50 [7] was 17.6 µM, the TGI [7] was 36.3 µM and the GI50 [8] was 18.5 µM. It also gave a TGI [8] of 42.5 µM, a GI50 [9] of 17.2 µM and a TGI [9] of 38.9 µM. The GI50 [10] was 20.9 µM, the TGI [10] was 46 µM and the GI50 [11] was 28.4 µM. The TGI [11] was over 100 µM, the GI50 [12] was 44.4 µM and the TGI [12] was over 100 µM. The GI50 [13] was 27.8 µM, the TGI [13] was over 100 µM and the GI50 [14] was 22.2 µM. It also gave a TGI [14] of 56.9 µM, a GI50 [15] of 23 µM and a TGI [15] of 73.2 µM. The GI50 [16] was 27.3 µM, the TGI [16] was over 100 µM and the GI50 [17] was 15.9 µM. It also gave a TGI [17] of 33.1 µM, a GI50 [18] of 15.9 µM and a TGI [18] of 34.3 µM. For the same molecule, the GI50 [19] was 31.7 µM, the TGI [19] was over 100 µM and the GI50 [20] was 16.3 µM. For the same molecule, the TGI [20] was 35.7 µM, the GI50 [21] was 15.6 µM and the TGI [21] was 46.6 µM. For the same molecule, the GI50 [22] was 53.5 µM, the TGI [22] was over 100 µM and the GI50 [23] was 25.2 µM. The TGI [23] was 85.9 µM, the GI50 [24] was 16.1 µM and the TGI [24] was 38.9 µM. For the same molecule, the GI50 [25] was 13.5 µM, the TGI [25] was 28.8 µM and the GI50 [26] was 88.4 µM. The TGI [26] was over 100 µM, the GI50 [27] was 36.1 µM and the TGI [27] was over 100 µM. It also gave a GI50 [28] of 41.1 µM, a TGI [28] of over 100 µM and a GI50 [29] of 38.1 µM. For the same molecule, the TGI [29] was over 100 µM, the GI50 [30] was 16.4 µM and the TGI [30] was 30.8 µM. For the same molecule, the GI50 [31] was 31.4 µM, the TGI [31] was over 100 µM and the GI50 [32] was 17.2 µM. The TGI [32] was 33.8 µM, the GI50 [33] was 24.2 µM and the TGI [33] was 94.3 µM. For the same molecule, the GI50 [34] was 20.3 µM, the TGI [34] was 45.5 µM and the GI50 [35] was 84.8 µM. The TGI [35] was over 100 µM, the GI50 [36] was 20.1 µM and the TGI [36] was 54.9 µM. The GI50 [37] was 53.1 µM, the TGI [37] was over 100 µM and the GI50 [38] was 11.3 µM. The TGI [38] was 26.8 µM, the GI50 [39] was 22.2 µM and the TGI [39] was 71.9 µM. It also gave a GI50 [40] of 28.4 µM, a TGI [40] of over 100 µM and a GI50 [41] of 18.5 µM. It also gave a TGI [41] of 54.9 µM, a GI50 [42] of 28.1 µM and a TGI [42] of over 100 µM. For the same molecule, the GI50 [43] was 75.7 µM, the TGI [43] was over 100 µM and the GI50 [44] was over 100 µM. The TGI [44] was over 100 µM, the GI50 [45] was 18.3 µM and the TGI [45] was 41.8 µM. The GI50 [46] was 42 µM, the TGI [46] was over 100 µM and the GI50 [47] was 18.8 µM. For the same molecule, the TGI [47] was 39.9 µM, the GI50 [48] was 34.2 µM and the TGI [48] was over 100 µM. It also gave a GI50 [49] of 27.3 µM, a TGI [49] of over 100 µM and a GI50 [50] of over 100 µM. It also gave a TGI [50] of over 100 µM, a GI50 [51] of 14.9 µM and a TGI [51] of 32.5 µM. For the same molecule, the GI50 [52] was 68.2 µM, the TGI [52] was over 100 µM and the GI50 [53] was 76 µM. For the same molecule, the TGI [53] was over 100 µM, the GI50 [54] was 16 µM and the TGI [54] was 34.9 µM. The GI50 [55] was 15.3 µM, the TGI [55] was 29.8 µM and the GI50 [56] was 10.2 µM. For the same molecule, the TGI [56] was 27.7 µM, the GI50 [57] was 27.2 µM and the TGI [57] was 89.8 µM. It also gave a GI50 [58] of over 100 µM and a TGI [58] of over 100 µM.
